Laboratory results from ChEMBL document CHEMBL1201862, “PubChem BioAssay data set” (2004).
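Cells were grown in 96-well plates and exposed to each compound for 48 hours at five concentrations; endpoints were interpolated linearly between bracketing concentrations, or set to the highest concentration if not reached. The concentration for 50% growth inhibition is given as GI50.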 Calls of active or inactive are those of the source. Rule as the data show it: active = GI50 up to about 1.1 µM and inactive = higher.

Assays:
Experiment in all cases: growth of human tumour cells (NCI), 48 h
786-0 = tested on: 786-0
A498 = tested on: A498
A549 = tested on: A549
ACHN = tested on: ACHN
BT-549 = tested on: BT-549
CAKI-1 = tested on: CAKI-1
CCRF-CEM = tested on: CCRF-CEM
COLO 205 = tested on: COLO 205
DU-145 = tested on: DU-145
EKVX = tested on: EKVX
HCC 2998 = tested on: HCC 2998
HCT-116 = tested on: HCT-116
HCT-15 = tested on: HCT-15
HOP-62 = tested on: HOP-62
HOP-92 = tested on: HOP-92
HT-29 = tested on: HT-29
Hs-578T = tested on: Hs-578T
IGROV-1 = tested on: IGROV-1
K562 = tested on: K562
KM12 = tested on: KM12
LOX IMVI = tested on: LOX IMVI
M14 = tested on: M14
MCF7 = tested on: MCF7
MDA-MB-231 = tested on: MDA-MB-231
MDA-MB-435 = tested on: MDA-MB-435
MDA-N = tested on: MDA-N
MOLT-4 = tested on: MOLT-4
NCI-H23 = tested on: NCI-H23
NCI-H460 = tested on: NCI-H460
OVCAR-3 = tested on: OVCAR-3
OVCAR-4 = tested on: OVCAR-4
OVCAR-5 = tested on: OVCAR-5
OVCAR-8 = tested on: OVCAR-8
PC-3 = tested on: PC-3
RPMI-8226 = tested on: RPMI-8226
RXF 393 = tested on: RXF 393
SF-268 = tested on: SF-268
SF-295 = tested on: SF-295
SK-MEL-28 = tested on: SK-MEL-28
SK-MEL-2 = tested on: SK-MEL-2
SK-MEL-5 = tested on: SK-MEL-5
SK-OV-3 = tested on: SK-OV-3
SN12C = tested on: SN12C
SNB-19 = tested on: SNB-19
SNB-75 = tested on: SNB-75
SR = tested on: SR
SW-620 = tested on: SW-620
T47D = tested on: T47D
TK-10 = tested on: TK-10
U-251 = tested on: U-251
UACC-257 = tested on: UACC-257
UACC-62 = tested on: UACC-62
UO-31 = tested on: UO-31
HL-60 = tested on: HL-60
Malme-3M = tested on: Malme-3M
NCI-H226 = tested on: NCI-H226
NCI-H522 = tested on: NCI-H522
NCI/ADR-RES = tested on: NCI/ADR-RES
SF-539 = tested on: SF-539

## CC(C)Cc1cnc(CC(C)C)c(=O)[nH]1
786-0
  GI50: > 100 µM (inactive)
A498
  GI50: > 100 µM (inactive)
A549
  GI50: > 100 µM (inactive)
ACHN
  GI50: > 100 µM (inactive)
BT-549
  GI50: > 100 µM (inactive)
CAKI-1
  GI50: > 100 µM (inactive)
CCRF-CEM
  GI50: > 100 µM (inactive)
COLO 205
  GI50: > 100 µM (inactive)
DU-145
  GI50: > 100 µM (inactive)
EKVX
  GI50: > 100 µM (inactive)
HCC 2998
  GI50: > 100 µM (inactive)
HCT-116
  GI50: > 100 µM (inactive)
HCT-15
  GI50: > 100 µM
HOP-62
  GI50: > 100 µM (inactive)
HOP-92
  GI50: > 100 µM (inactive)
HT-29
  GI50: > 100 µM (inactive)
Hs-578T
  GI50: > 100 µM (inactive)
IGROV-1
  GI50: > 100 µM (inactive)
K562
  GI50: > 100 µM (inactive)
KM12
  GI50: > 100 µM (inactive)
LOX IMVI
  GI50: > 100 µM (inactive)
M14
  GI50: > 100 µM (inactive)
MCF7
  GI50: > 100 µM (inactive)
MDA-MB-231
  GI50: > 100 µM (inactive)
MDA-MB-435
  GI50: > 100 µM (inactive)
MDA-N
  GI50: > 100 µM (inactive)
MOLT-4
  GI50: > 100 µM (inactive)
NCI-H23
  GI50: > 100 µM (inactive)
NCI-H460
  GI50: > 100 µM (inactive)
OVCAR-3
  GI50: > 100 µM (inactive)
OVCAR-4
  GI50: > 100 µM (inactive)
OVCAR-5
  GI50: > 100 µM (inactive)
OVCAR-8
  GI50: > 100 µM (inactive)
PC-3
  GI50: > 100 µM (inactive)
RPMI-8226
  GI50: 0.705 µM (active)
RXF 393
  GI50: > 100 µM (inactive)
SF-268
  GI50: > 100 µM (inactive)
SF-295
  GI50: > 100 µM (inactive)
SK-MEL-28
  GI50: > 100 µM (inactive)
SK-MEL-2
  GI50: > 100 µM (inactive)
SK-MEL-5
  GI50: > 100 µM (inactive)
SK-OV-3
  GI50: > 100 µM (inactive)
SN12C
  GI50: > 100 µM (inactive)
SNB-19
  GI50: > 100 µM (inactive)
SNB-75
  GI50: > 100 µM (inactive)
SR
  GI50: > 100 µM (inactive)
SW-620
  GI50: > 100 µM (inactive)
T47D
  GI50: > 100 µM (inactive)
TK-10
  GI50: > 100 µM (inactive)
U-251
  GI50: > 100 µM (inactive)
UACC-257
  GI50: > 100 µM (inactive)
UACC-62
  GI50: > 100 µM (inactive)
UO-31
  GI50: > 100 µM (inactive)

## O=C(O)C1CCCCN1CCc1c[nH]c2ccccc12 (stereo unspecified)
786-0
  GI50: > 100 µM (inactive)
A549
  GI50: > 100 µM (inactive)
ACHN
  GI50: > 100 µM (inactive)
BT-549
  GI50: > 100 µM (inactive)
CAKI-1
  GI50: > 100 µM (inactive)
CCRF-CEM
  GI50: > 100 µM (inactive)
COLO 205
  GI50: > 100 µM (inactive)
DU-145
  GI50: > 100 µM (inactive)
EKVX
  GI50: > 100 µM (inactive)
HCC 2998
  GI50: > 100 µM (inactive)
HCT-116
  GI50: > 100 µM (inactive)
HCT-15
  GI50: > 100 µM
HL-60
  GI50: > 100 µM (inactive)
HOP-62
  GI50: > 100 µM (inactive)
HOP-92
  GI50: 30.7 µM (inactive)
HT-29
  GI50: > 100 µM (inactive)
IGROV-1
  GI50: > 100 µM (inactive)
K562
  GI50: > 100 µM (inactive)
KM12
  GI50: > 100 µM (inactive)
LOX IMVI
  GI50: > 100 µM (inactive)
M14
  GI50: > 100 µM (inactive)
MCF7
  GI50: > 100 µM (inactive)
MDA-MB-231
  GI50: > 100 µM (inactive)
MDA-MB-435
  GI50: > 100 µM (inactive)
MDA-N
  GI50: > 100 µM (inactive)
MOLT-4
  GI50: > 100 µM (inactive)
Malme-3M
  GI50: > 100 µM (inactive)
NCI-H226
  GI50: > 100 µM (inactive)
NCI-H23
  GI50: > 100 µM (inactive)
NCI-H460
  GI50: > 100 µM (inactive)
NCI-H522
  GI50: > 100 µM (inactive)
NCI/ADR-RES
  GI50: > 100 µM (inactive)
OVCAR-3
  GI50: > 100 µM (inactive)
OVCAR-4
  GI50: > 100 µM (inactive)
OVCAR-5
  GI50: > 100 µM (inactive)
OVCAR-8
  GI50: > 100 µM (inactive)
PC-3
  GI50: > 100 µM (inactive)
RPMI-8226
  GI50: > 100 µM (inactive)
RXF 393
  GI50: > 100 µM (inactive)
SF-268
  GI50: > 100 µM (inactive)
SF-295
  GI50: > 100 µM (inactive)
SF-539
  GI50: > 100 µM (inactive)
SK-MEL-28
  GI50: > 100 µM (inactive)
SK-MEL-2
  GI50: > 100 µM (inactive)
SK-OV-3
  GI50: > 100 µM (inactive)
SN12C
  GI50: > 100 µM (inactive)
SNB-19
  GI50: > 100 µM (inactive)
SNB-75
  GI50: > 100 µM (inactive)
SW-620
  GI50: > 100 µM (inactive)
T47D
  GI50: > 100 µM (inactive)
TK-10
  GI50: > 100 µM (inactive)
U-251
  GI50: > 100 µM (inactive)
UACC-257
  GI50: > 100 µM (inactive)
UACC-62
  GI50: > 100 µM (inactive)

## O=C1CSc2nnc(CCCCCCCCc3nnc4n3NC(=O)CS4)n2N1
786-0
  GI50: 32.6 µM (inactive)
A498
  GI50: > 100 µM (inactive)
A549
  GI50: > 100 µM (inactive)
ACHN
  GI50: > 100 µM (inactive)
BT-549
  GI50: 56.8 µM (inactive)
CAKI-1
  GI50: > 100 µM (inactive)
CCRF-CEM
  GI50: 15.3 µM (inactive)
COLO 205
  GI50: > 100 µM (inactive)
DU-145
  GI50: > 100 µM (inactive)
EKVX
  GI50: > 100 µM (inactive)
HCC 2998
  GI50: > 100 µM (inactive)
HCT-116
  GI50: 91.2 µM (inactive)
HCT-15
  GI50: 37.2 µM
HL-60
  GI50: 31.5 µM (inactive)
HOP-62
  GI50: 46 µM (inactive)
HOP-92
  GI50: 82 µM (inactive)
HT-29
  GI50: 23.1 µM (inactive)
IGROV-1
  GI50: 42.6 µM (inactive)
K562
  GI50: 37.8 µM (inactive)
KM12
  GI50: > 100 µM (inactive)
M14
  GI50: > 100 µM (inactive)
MCF7
  GI50: 45.6 µM (inactive)
MDA-MB-231
  GI50: 69.3 µM (inactive)
MDA-MB-435
  GI50: > 100 µM (inactive)
MDA-N
  GI50: > 100 µM (inactive)
MOLT-4
  GI50: 31.3 µM (inactive)
Malme-3M
  GI50: 31.9 µM (inactive)
NCI-H226
  GI50: > 100 µM (inactive)
NCI-H23
  GI50: > 100 µM (inactive)
NCI-H460
  GI50: > 100 µM (inactive)
NCI-H522
  GI50: 26.7 µM (inactive)
NCI/ADR-RES
  GI50: > 100 µM (inactive)
OVCAR-3
  GI50: > 100 µM (inactive)
OVCAR-4
  GI50: > 100 µM (inactive)
OVCAR-5
  GI50: > 100 µM (inactive)
OVCAR-8
  GI50: 27.4 µM (inactive)
PC-3
  GI50: > 100 µM (inactive)
RPMI-8226
  GI50: 28.6 µM (inactive)
SF-268
  GI50: 43.3 µM (inactive)
SF-295
  GI50: 85.1 µM (inactive)
SF-539
  GI50: 48.9 µM (inactive)
SK-MEL-28
  GI50: > 100 µM (inactive)
SK-MEL-2
  GI50: > 100 µM (inactive)
SK-OV-3
  GI50: > 100 µM (inactive)
SN12C
  GI50: > 100 µM (inactive)
SNB-19
  GI50: 32.1 µM (inactive)
SNB-75
  GI50: 32.1 µM (inactive)
SR
  GI50: 30.8 µM (inactive)
SW-620
  GI50: 73.6 µM (inactive)
T47D
  GI50: > 100 µM (inactive)
U-251
  GI50: 35.4 µM (inactive)
UACC-257
  GI50: 42.6 µM (inactive)
UACC-62
  GI50: > 100 µM (inactive)
UO-31
  GI50: > 100 µM (inactive)
